Test results from ChEMBL document CHEMBL5625245, “Novel ProTide prodrugs of 5-fluoro-2'-deoxyuridine for the treatment of liver cancer” (Eur J Med Chem, 2023).
The source made the active and inactive calls. The rule behind the calls is not given here.

Legend:
[1] = Antiproliferative activity against human NCM460 cells assessed as reduction in cell viability measured after 48 to 72 hrs by MTT assay; type: toxicity, cell-based
[2] = test system: HepG2; experiment: Antiproliferative activity against human HepG2 cells assessed as reduction in cell viability measured after 48 to 72 hrs by MTT assay; type: functional, cell-based
[3] = test system: Bel-7402; experiment: Antiproliferative activity against human Bel-7402 cells assessed as reduction in cell viability at 20 uM measured after 48 hrs by MTT assay relative to control; type: functional
[4] = test system: Bel-7402; experiment: Antiproliferative activity against human Bel-7402 cells assessed as reduction in cell viability measured after 48 to 72 hrs by MTT assay; type: functional, cell-based
[5] = Antiproliferative activity against human L02 cells assessed as reduction in cell viability measured after 48 to 72 hrs by MTT assay; type: toxicity, cell-based
[6] = test system: HepG2; experiment: Antiproliferative activity against human HepG2 cells assessed as reduction in cell viability at 20 uM measured after 48 hrs by MTT assay relative to control; type: functional
[7] = test system: Bel-7402; experiment: Antiproliferative activity against human Bel-7402 cells assessed as reduction in cell viability at 20 uM measured after 48 hrs by MTT assay; type: functional, cell-based

Row | IC50 [2] [µM] | IC50 [4] [µM] | Structure (SMILES) | IC50 [1] [µM] | Activity [3] [%] | IC50 [5] [µM] | Activity [6] [%] | Activity [7]
1 | 48.7 | 8.99 | CCC(C)[C@H](NC(=O)OC(C)(C)C)C(=O)O[C@H]1C[C@H](n2cc(F)c(=O)[nH]c2=O)O[C@@H]1CO[P@@](=O)(N[C@@H](C)C(=O)OC(C)C)Oc1ccccc1 (stereo not given in full) | > 100 | >60 | > 100 |  | 
2 | 21.2 | 9.68 | CC(C)C[C@H](NC(=O)OC(C)(C)C)C(=O)O[C@H]1C[C@H](n2cc(F)c(=O)[nH]c2=O)O[C@@H]1CO[P@@](=O)(N[C@@H](C)C(=O)OC(C)C)Oc1ccccc1 | > 100 | >60 | > 100 |  | 
3 |  |  | CC(C)C[C@H](N)C(=O)NCC(=O)O[C@H]1C[C@H](n2cc(F)c(=O)[nH]c2=O)O[C@@H]1CO[P@@](=O)(N[C@@H](C)C(=O)OC(C)C)Oc1ccccc1 |  | 50 |  | 50 | 
4 | 34.1 | 13.2 | CC(C)OC(=O)[C@H](C)N[P@](=O)(OC[C@H]1O[C@@H](n2cc(F)c(=O)[nH]c2=O)C[C@@H]1OC(=O)[C@H](Cc1ccccc1)NC(=O)[C@@H](NC(=O)OC(C)(C)C)C(C)C)Oc1ccccc1 | > 100 |  | > 100 |  | 
5 | 17.5 | 10.1 | CC(C)OC(=O)[C@H](C)N[P@](=O)(OC[C@H]1O[C@@H](n2cc(F)c(=O)[nH]c2=O)C[C@@H]1OC(=O)CNC(=O)OC(C)(C)C)Oc1ccccc1 | > 100 | >60 | > 100 | >50 | 
6 |  |  | CC(C)C[C@H](NC(=O)CNC(=O)OC(C)(C)C)C(=O)O[C@H]1C[C@H](n2cc(F)c(=O)[nH]c2=O)O[C@@H]1CO[P@@](=O)(N[C@@H](C)C(=O)OC(C)C)Oc1ccccc1 |  |  |  | >50 | 
7 |  |  | CC(C)C[C@H](NC(=O)OC(C)(C)C)C(=O)NCC(=O)O[C@H]1C[C@H](n2cc(F)c(=O)[nH]c2=O)O[C@@H]1CO[P@@](=O)(N[C@@H](C)C(=O)OC(C)C)Oc1ccccc1 |  | 50 |  | 50 | 
8 |  |  | CC(C)OC(=O)[C@H](C)N[P@](=O)(OC[C@H]1O[C@@H](n2cc(F)c(=O)[nH]c2=O)C[C@@H]1OC(=O)[C@@H](N)Cc1ccccc1)Oc1ccccc1 |  |  |  |  | Active
9 |  |  | CC(C)OC(=O)[C@H](C)N[P@](=O)(OC[C@H]1O[C@@H](n2cc(F)c(=O)[nH]c2=O)C[C@@H]1OC(=O)[C@H](C)NC(=O)CN)Oc1ccccc1 |  | 50 |  | 50 | 
10 |  |  | CC(C)OC(=O)[C@H](C)N[P@](=O)(OC[C@H]1O[C@@H](n2cc(F)c(=O)[nH]c2=O)C[C@@H]1OC(=O)[C@H](C)N)Oc1ccccc1 |  |  |  |  | Active
11 |  |  | CC(C)OC(=O)[C@H](C)N[P@](=O)(OC[C@H]1O[C@@H](n2cc(F)c(=O)[nH]c2=O)C[C@@H]1OC(=O)CN)Oc1ccccc1 |  |  |  |  | Active
